From patent US20220304945A1, “METHODS OF TREATING METABOLIC SYNDROME RELATED CONDITIONS USING RETINOIC ACID RECEPTOR AGONISTS” (Cornell University, priority 2014, published 2022)
Entries after “also recorded” stand apart in the source; their conditions may differ.

Key:
Type in all cases: in vivo, mouse
[1] = HPLC analysis of serum and liver retinoids, HF-fed mice; conditions: for liver retinyl palmitate and retinol compared to controls: HF diet mice vs control diet
Excerpt: (§1) Mice, diet, and drug treatment. WT male C57/BL6 male mice were maintained on either a standard laboratory chow-fed diet (CFD) with 13% kcal fat, (diet #5053, Lab Diet, Inc, St. Louis, Mo.) or a high fat, western style diet (HFD) with 60% kcals from fat, (diet #58126, Lab Diet, Inc., St. Louis, Mo.) for 4 months. One month after the start of the high fat diet treatment, the high fat diet group was further split into 2 groups for 3 months: i) high fat diet and the drinking water containing 1% DMSO; ii) high fat diet and the drinking water containing 1.5 mg/100 ml AC261066, a specific RARβ agonist. Then mice were sacrificed by cervical dislocation. Blood and various tissue samples were harvested.
(§2) Analysis of serum and liver retinoids. The frozen liver tissue samples (˜100 mg) were homogenized in 500 μl cold phosphate-buffered saline (PBS). In addition, 100 μl serum was diluted in cold PBS to total volume of 500 μl. Retinyl acetate was added to each sample before the retinoid extraction for the calculation of extraction efficiency. The retinoids were extracted into 350 μl of organic solution (acetonitrile/butanol, 50:50, v/v) in the dark. The high performance liquid chromatography (HPLC) was performed using a Waters Millennium system (Waters). Each sample (100 μl of the 350 μl) was loaded onto an analytical 5-μm reverse phase C18 column (Vydac, Hesperia, Calif.) and eluted at a flow rate of 1.5 ml/min. Two mobile phase gradient systems were used. Retinoids were identified by HPLC based on two criteria: an exact match of the retention times of unknown peaks with those of authentic retinoid standards and identical UV light spectra (220-400 nm) of unknowns against spectra from authentic retinoid standards during HPLC by the use of a photodiode array detector. The amounts of retinoids were calculated from the areas under the peaks detected at the wave-length of 325 nm. The levels of retinol and retinyl esters were normalized to the tissue weight.
as §2, with “Millenium” for “Millennium”

[2] = test system: α-SMA, SREBP1c, MCP-1, TNF-α mRNA; assay: Semi-quantitative PCR of liver, HF-fed mice; conditions: HF diet mice 4 months
Excerpt: as §1
Semi-Quantitate PCR (Liver). Total RNA was extracted from mouse tissues using TRIzol reagent (Life technologies) and (1 μg) was used to synthesize cDNA. cDNA synthesis was performed at 42° C. for 1 h in a final volume of 20 μl using qScript (Quanta, MD). Semi-quantitative PCR were performed Taq DNA polymerase (Invitrogen, CA). Three step PCR was run as follows: 94° C. for 30 s, 58-64° C. for 45 s for primer annealing and 72° C. for 1 min for primer extension. The number of cycles for each primer pair for amplification in the linear range was determined experimentally. PCR products were resolved on 2% agarose gels and visualized by staining with ehtidium bromide. Primers for gene expression used were as follows: […]

HF-fed C57/BL6 mice [3] = assay: Hepatic steatosis: H and E and oil red O staining of liver, HF-fed mice; conditions: HF diet mice 4 months; vs HF-vehicle
Excerpt: as §1
(§3) Hematoxylin and Eosin Staining. At sacrifice, fresh mouse liver samples were fixed in 4% formaldehyde solution for 24 hr and embedded in paraffin blocks. Liver paraffin sections were cut 5 microns thick and mounted on glass slides and stained with hematoxylin and eosin (H and E) using standard protocols.
(§4) Combined oil red O and Immunofluorescence. Staining. Fresh mouse liver samples were embedded in optimal cutting temperature (OCT) medium and immediately frozen to −70 centigrade. Cryosections were then fixed in 4% formaldehyde for 1 hr at room temp. Slides were then rinsed three times in deionized water (dH2O) for 30 s, followed by treatment with 0.5% Triton X-100 in PBS for 5 min. Sections were then washed three times with PBS for 5 min. Samples were with incubated 2% bovine serum albumin (BSA) for 30 min at room temperature to block for unspecific antibody binding. Following blocking, sections were washed three times in PBS and incubated with mouse monoclonal antibody against α-SMA (1:500) (Dako, Inc) for 24 h at 4° C. After 24 h sections were washed three times in PB and incubated with Alexa-Flour-488 anti-mouse secondary anti-body (1:500) (Invitrogen, Inc) for 30 min at room temperature. Sections were then washed three times in PBS and incubated with working strength oil-red O solution for 30 minutes at room temperature. Sections were then rinsed for 30 minutes under running tap water and cover-slipped with Vectashield hard mount plus DAPI (Vector Labs, Inc).

[4] = test system: hepatic stellate cells (HSCs); assay: Hepatic stellate cell activation: α-SMA immunofluorescence of liver, HF-fed mice; conditions: HF diet mice 4 months, vs HF-vehicle
Excerpt: as §1, §4

HF-fed C57/BL6 mice [5] = assay: Renal lipid accumulation: H and E and oil red O staining of kidney, HF-fed mice; conditions: HF diet mice 4 months; vs HF-vehicle
Excerpt: as §1
as §3, with “Kidney” for “Liver”
as §4, with “Immunofluorescence staining.” for “Immunofluorescence. Staining.”, “kidney” for “liver”, “Sections were then rinsed for 30 minutes under running tap water and cover-slipped with Vectashield hard mount plus DAPI (Vector Labs, Inc).” left out

Row | SMILES | retinyl palmitate in liver, higher than HF-vehicle treated mice ([1]; HF diet mice) [%] | vitamin A deficiency (VA depletion) in liver ([1]; HF diet mice) | liver retinyl palmitate and retinol compared to controls [1] | hepatic mRNA level of MCP-1 [2] | hepatic mRNA level of TNF-α [2] | hepatic mRNA level of alpha-SMA ([2]; vs HF-vehicle) | hepatic lipid accumulation (oil red O) (HF-fed C57/BL6 mice [3]) | hepatic steatosis / hepatocyte lipid accumulation (H and E) (HF-fed C57/BL6 mice [3]) | activation of hepatic stellate cells (α-SMA positive staining in liver) [4] | activation of hepatic stellate cells (α-SMA positive staining in liver) ([4]; listed as AC261011) | renal lipid accumulation (H and E) (HF-fed C57/BL6 mice [5]) | renal lipid accumulation (oil red O) (HF-fed C57/BL6 mice [5]) | retinyl palmitate in liver, lower than HF-vehicle treated mice ([1]; HF diet mice) [%] | hepatic mRNA level of SREBP1-c ([2]; vs control diet)
1 | CCCCOCCOc1nc(-c2ccc(C(=O)O)c(F)c2)sc1C [AC261066] | 55 | partially reverses | significantly lowered | decreases; also recorded: significantly diminish | decreases | decreased | marked diminished | diminished; also recorded: prevent; also recorded: marked decreased | diminished; also recorded: prevent; also recorded: decreased intensity and regions of α-SMA positive staining | decreased | diminished; also recorded: markedly decreased | marked diminished; also recorded: comparably less | – | –
2 | O=C(O)c1ccc(-c2ccc3cc(O)c(C45CC6CC(CC(C6)C4)C5)cc3c2)cc1 [CD1530] | – | – | significantly lowered | markedly elevated | markedly elevated | – | not observed; also recorded: no evidence decreased | no decrease | no evidence decreased | – | no decrease | – | ~48 | markedly higher
